In patent publication US11213516B2, “Intravaginally applicable devices comprising antiviral compounds” (AICURIS ANTI-INFECTIVE CURES GMBH, priority 2017, dated 2022):
Several values for one entry are separate records, joined by “and”; a condition that tells them apart may be missing. Identical values can stand only once. Marks after values point to notes of the source that are not given here.

Experiment: Plasma concentration after intravaginal administration of vaginal ring
Assay type: in vivo, Cynomolgus monkeys
Conditions: for Plasma concentration of Pritelivir free base: individual animals; for Plasma concentration of Pritelivir free base, Mean: group mean
Procedure: The study was performed in four single dose phases with 28-day sampling period after Phases 1 and 2 (7-day washout period between doses). Vaginal rings were investigated for Pritelivir free base and Pritelivir mesylate salt at two dose levels per formulation. The test items were applied as vaginal ring in Phases 1 and 2 to female monkeys. The study design is below in the Table 3.
Venous blood samples were taken from all animals at the following times in relation to dosing.
• Blood sample site Femoral site • Blood volume 1.0 mL • Anticoagulant For phase 1 samples, Day 1-3 only, blood was sampled into standard HLS vials containing lithium heparin and 20 μL aqueous phosphoric acid (3.5 molar). Thereafter, blood was collected into tubes containing lithium heparin only. Plasma was obtained from all samples by centrifugation. Samples were appropriately labeled and stored deep frozen (−20° C. or below) until analysis • Total no. of blood samples 350 Vaginal Fluid Sampling
After suitable dilution, plasma and vaginal samples were analyzed on UPLC system Waters Acquity UPLC-HSS PFP column with 1.8 μm particles (100×2.1 mm) by gradient elution using 0.1% formic acid and methanol containing 0.1% formic acid. For detection, a time-of-flight mass spectrometer (Xevo GS-2 QTOF, Waters) was used operating in positive ionization mode (MSe analysis). The samples were analyzed for their content of Pritelivir free base.
The study was designed to obtain information on the time-course of unchanged test compound concentrations in plasma and vaginal fluid/tissue, following single intravaginal administration of rings to female Cynomolgus monkeys. Objectives of this study were to determine the safety and tolerance of Pritelivir loaded rings, as well as systemic and local exposure (plasma, vaginal fluid and vaginal and vulval tissue, respectively). Local exposures were compared with in vitro efficacy data of Pritelivir to get an idea on initial pharmacokinetic/pharmacodynamic (PK/PD) parameters for vaginal rings, i.e. to assess the potential ability of a Pritelivir loaded ring to suppress viral replication in the target tissue. Table 9 gives an overview on the EC50 values of Pritelivir on HSV-1 and HSV-2 Data source: Field, H. J., et al., Baseline sensitivity of HSV-1 and HSV-2 clinical isolates and defined acyclovir-resistant strains to the helicase-primase inhibitor pritelivir. Antiviral Res, 2013. 100(2): p. 297-9. EC50=50% effective concentration.

[1] = ring 40 mg free base, Phase 1 Group 1, 2 d
[2] = ring 40 mg free base, Phase 1 Group 1, 3 d
[3] = ring 240 mg free base, Phase 2 Group 1, 2 d
[4] = ring 240 mg free base, Phase 2 Group 1, 3 d
[5] = ring 240 mg free base, Phase 2 Group 1, 4 d
[6] = ring 240 mg free base, Phase 2 Group 1, 7 d
[7] = ring 240 mg free base, Phase 2 Group 1, 10 d
[8] = ring 240 mg free base, Phase 2 Group 1, 14 d
[9] = ring 240 mg free base, Phase 2 Group 1, 17 d
[10] = ring 240 mg free base, Phase 2 Group 1, 21 d
[11] = ring 240 mg free base, Phase 2 Group 1, 24 d
[12] = ring 240 mg free base, Phase 2 Group 1, 28 d

SMILES: Cc1nc(N(C)C(=O)Cc2ccc(-c3ccccn3)cc2)sc1S(N)(=O)=O [Pritelivir free base]
- Plasma concentration of Pritelivir free base (ring 40 mg free base, Phase 1 Group 1, 0.0833 d): 6.03 ^ μg/L and 4.53 ^ μg/L
- Plasma concentration of Pritelivir free base (ring 40 mg free base, Phase 1 Group 1, 0.167 d): 6.90 ^ μg/L and 7.56 ^ μg/L
- Plasma concentration of Pritelivir free base (ring 40 mg free base, Phase 1 Group 1, 0.333 d): 8.54 ^ μg/L and 10.9 ^ μg/L and 3.97 ^ μg/L
- Plasma concentration of Pritelivir free base, Mean [1]: 10.2 ^ μg/L
- Plasma concentration of Pritelivir free base [1]: 4.07 ^ μg/L and 11.6 ^ μg/L and 18.3 ^ μg/L and 6.75 ^ μg/L
- Plasma concentration of Pritelivir free base, Mean [2]: 9.20 ^ μg/L
- Plasma concentration of Pritelivir free base [2]: 4.80 ^ μg/L and 7.29 ^ μg/L and 18.4 ^ μg/L and 6.30 ^ μg/L
- Plasma concentration of Pritelivir free base (ring 40 mg free base, Phase 1 Group 1, 4 d): 3.41 ^a μg/L and 5.30 ^ μg/L and 3.51 ^a μg/L
- Plasma concentration of Pritelivir free base (ring 40 mg free base, Phase 1 Group 1, 7 d): 3.22 ^a μg/L and 3.86 ^a μg/L and 4.00 ^ μg/L
- Plasma concentration of Pritelivir free base (ring 40 mg free base, Phase 1 Group 1, 10 d): 3.02 ^a μg/L and 3.74 ^a μg/L and 2.75 ^a μg/L
- Plasma concentration of Pritelivir free base (ring 40 mg free base, Phase 1 Group 1, 14 d): 2.83 ^a μg/L and 4.32 ^ μg/L and 3.29 ^a μg/L
- Plasma concentration of Pritelivir free base (ring 40 mg free base, Phase 1 Group 1, 17 d): 4.08 ^ μg/L and 3.48 ^a μg/L and 2.59 ^a μg/L
- Plasma concentration of Pritelivir free base (ring 40 mg free base, Phase 1 Group 1, 21 d): 3.08 ^a μg/L and 2.67 ^a μg/L
- Plasma concentration of Pritelivir free base (ring 40 mg free base, Phase 1 Group 1, 24 d): 2.77 ^a μg/L
- Plasma concentration of Pritelivir free base (ring 40 mg free base, Phase 1 Group 1, 28 d): 2.76 ^a μg/L and 3.00 ^a μg/L
- Plasma concentration of Pritelivir free base (ring 240 mg free base, Phase 2 Group 1, 0.0417 d): 2.96 ^a μg/L
- Plasma concentration of Pritelivir free base (ring 240 mg free base, Phase 2 Group 1, 0.0833 d): 2.95 ^a μg/L
- Plasma concentration of Pritelivir free base (ring 240 mg free base, Phase 2 Group 1, 0.167 d): 2.82 ^a μg/L and 8.45 μg/L and 4.56 μg/L and 2.49 ^a μg/L
- Plasma concentration of Pritelivir free base (ring 240 mg free base, Phase 2 Group 1, 0.333 d): 3.78 ^a μg/L and 10.1 μg/L and 5.80 μg/L and 3.79 ^a μg/L
- Plasma concentration of Pritelivir free base, Mean [3]: 14.3 ^ μg/L
- Plasma concentration of Pritelivir free base [3]: 10.1 ^ μg/L and 23.0 μg/L and 9.89 μg/L
- Plasma concentration of Pritelivir free base, Mean [4]: 17.0 ^ μg/L
- Plasma concentration of Pritelivir free base [4]: 15.6 ^ μg/L and 15.2 μg/L and 10.2 ^ μg/L
- Plasma concentration of Pritelivir free base, Mean [5]: 17.0 ^ μg/L
- Plasma concentration of Pritelivir free base [5]: 13.9 ^ μg/L and 16.1 μg/L and 12.2 ^ μg/L
- Plasma concentration of Pritelivir free base, Mean [6]: 13.1 ^ μg/L
- Plasma concentration of Pritelivir free base [6]: 11.8 ^ μg/L and 14.2 μg/L and 10.3 ^ μg/L
- Plasma concentration of Pritelivir free base, Mean [7]: 8.80 ^ μg/L
- Plasma concentration of Pritelivir free base [7]: 8.27 ^ μg/L and 9.04 μg/L and 8.43 ^ μg/L
- Plasma concentration of Pritelivir free base, Mean [8]: 8.70 ^ μg/L
- Plasma concentration of Pritelivir free base [8]: 6.33 ^ μg/L and 8.33 μg/L and 10.6 ^ μg/L
- Plasma concentration of Pritelivir free base, Mean [9]: 8.67 ^ μg/L
- Plasma concentration of Pritelivir free base [9]: 5.58 ^ μg/L and 9.84 μg/L and 8.41 ^ μg/L
- Plasma concentration of Pritelivir free base, Mean [10]: 6.97 ^ μg/L
- Plasma concentration of Pritelivir free base [10]: 6.02 ^ μg/L and 8.37 μg/L and 5.71 ^ μg/L
- Plasma concentration of Pritelivir free base, Mean [11]: 8.97 ^ μg/L
- Plasma concentration of Pritelivir free base [11]: 4.96 ^ μg/L and 11.3 μg/L and 9.86 ^ μg/L
- Plasma concentration of Pritelivir free base, Mean [12]: 8.79 ^ μg/L
- Plasma concentration of Pritelivir free base [12]: 5.57 ^ μg/L and 9.32 μg/L and 7.55 ^ μg/L
